Measurements from ChEMBL document CHEMBL5532755, “Unveiling the potent activity of a synthetic ion transporter against multidrug-resistant Gram-positive bacteria and biofilms” (RSC Med Chem, 2024).
≈ marks a conversion by molar mass, not a printed value. Calls of active or inactive are those of the source. The calls are words filed in the database; no cut-off is given here.

How the values were obtained:
Cell membrane [1] = assay: Induction of membrane depolarization in methicillin-resistant Staphylococcus aureus ATCC 33591 assessed as depolarized bacterial cells by measuring red fluorescence at 10 to 15 ug/ml incubated for 4 hrs by DiOC2(3) dye based flow cytometry analysis (reference value: 63.8%); type: cell membranes; details: dose 10-15 µg/ml
Cell membrane [2] = assay: Induction of membrane depolarization in methicillin-resistant Staphylococcus aureus ATCC 33591 assessed as depolarized bacterial cells by measuring green fluorescence at 10 to 15 ug/ml incubated for 4 hrs by DiOC2(3) dye based flow cytometry analysis (reference value: 27.3%); type: cell membranes; details: dose 10-15 µg/ml
Cell membrane [3] = assay: Induction of membrane depolarization in methicillin-resistant Staphylococcus aureus ATCC 33591 assessed as depolarized bacterial cells by measuring red to green fluorescence ratio at 10 to 15 ug/ml incubated for 4 hrs by DiOC2(3) dye based flow cytometry analysis; type: cell membranes; details: dose 10-15 µg/ml
Enterococcus faecium [4] = assay: Antibacterial activity against vancomycin-resistant Enterococcus faecium 909 incubated for 16 to 18 hrs by broth dilution method; type: functional; details: time 16-18 hrs
Enterococcus faecium [5] = assay: Antibacterial activity against vancomycin-resistant Enterococcus faecium 903 incubated for 16 to 18 hrs by broth dilution method; type: functional; details: time 16-18 hrs
Staphylococcus aureus [6] = assay: Antibiofilm activity against methicillin-resistant Staphylococcus aureus ATCC 33591 assessed as eradication of enclosed biofilm measuring by reduction in green fluorescence at 32 ug/ml by Syto-9/PI staining based confocal laser scanning microscopy; type: functional, organism-based; details: dose 32.0 µg/ml
Staphylococcus aureus [7] = assay: Antibacterial activity against vancomycin-resistant Staphylococcus aureus 1 incubated for 16 to 18 hrs by broth dilution method; type: functional; details: time 16-18 hrs
Staphylococcus aureus [8] = assay: Antibacterial activity against vancomycin-resistant Staphylococcus aureus 4 incubated for 16 to 18 hrs by broth dilution method; type: functional; details: time 16-18 hrs
[9] = Selectivity index, ratio of HC50 for hemolytic activity in human RBC to MIC for antibacterial activity against methicillin-resistant Staphylococcus aureus R3890; type: toxicity; details: human red blood cells (erythrocytes), read-out: Selectivity Index
[10] = Selectivity index, ratio of HC50 for hemolytic activity in human RBC to MIC for antibacterial activity against vancomycin-resistant Staphylococcus aureus 1; type: toxicity; details: human red blood cells (erythrocytes), read-out: Selectivity Index
Staphylococcus aureus [11] = assay: Antibiofilm activity against methicillin-resistant Staphylococcus aureus ATCC 33591 assessed as log reduction in bacterial burden in biofilm at 64 ug/ml incubated for 18 hrs; type: functional; details: dose 64 µg/ml
[12] = Selectivity index, ratio of HC50 for hemolytic activity in human RBC to MIC for antibacterial activity against methicillin-resistant Staphylococcus aureus ATCC 33591; type: toxicity; details: human red blood cells (erythrocytes), read-out: Selectivity Index
Cell membrane [13] = assay: Induction of membrane depolarization in methicillin-resistant Staphylococcus aureus ATCC 33591 assessed as depolarized bacterial cells by measuring red fluorescence at 8 ug/ml incubated for 4 hrs by DiOC2(3) dye based flow cytometry analysis (reference value: 63.8%); type: cell membranes; details: dose 8.0 µg/ml
[14] = Selectivity index, ratio of HC50 for hemolytic activity in human RBC to MIC for antibacterial activity against vancomycin-resistant Enterococcus faecium 909; type: toxicity; details: human red blood cells (erythrocytes), read-out: Selectivity Index
Staphylococcus aureus [15] = assay: Bactericidal activity against vancomycin-resistant Staphylococcus aureus 1 assessed as reduction in bacterial count at 16 ug/ml observed after 12 hrs by time killing analysis; type: functional; parameters: scale not given: the % may be the effect or the level left; details: dose 16 µg/ml
[16] = Selectivity index, ratio of HC50 for hemolytic activity in human RBC to MIC for antibacterial activity against Staphylococcus aureus; type: toxicity; details: human red blood cells (erythrocytes), read-out: Selectivity Index
Cell membrane [17] = assay: Induction of cytoplasmic membrane depolarization in methicillin-resistant Staphylococcus aureus ATCC 33591 assessed as increase in fluorescence intensity measured after 24 min by DiSC3-5 dye based fluorescence method; details: dose 4-16 µg/ml
Staphylococcus aureus [18] = assay: Bactericidal activity against methicillin-resistant Staphylococcus aureus ATCC 33591 assessed as log reduction in bacterial titer at 8 ug/ml observed within 12 hrs by time killing analysis; type: functional; details: dose 8 µg/ml
Staphylococcus aureus [19] = assay: Antibiofilm activity against methicillin-resistant Staphylococcus aureus ATCC 33591 assessed as log reduction in bacterial burden in biofilm at 32 ug/ml incubated for 18 hrs; type: functional; details: dose 32 µg/ml
Staphylococcus aureus [20] = assay: Induction of ROS generation in methicillin-resistant Staphylococcus aureus ATCC 33591 assessed as increase in fluorescence intensity by DCFH-DA dye based flow cytometry analysis; type: functional, organism-based; details: dose 8-16 µg/ml
[21] = tested on: Staphylococcus epidermidis; assay: Antibacterial activity against Staphylococcus epidermidis MTCC 3615 incubated for 16 to 18 hrs by broth dilution method; type: functional; details: time 16-18 hrs
Cell membrane [22] = assay: Induction of cytoplasmic membrane depolarization in vancomycin-resistant Staphylococcus aureus 1 assessed as increase in fluorescence intensity and measured after 24 min by DiSC3-5 dye based fluorescence method; details: dose 4-16 µg/ml
Staphylococcus aureus [23] = assay: Bactericidal activity against methicillin-resistant Staphylococcus aureus ATCC 33591 assessed as eradication of bacterial cells at 8 ug/ml observed within 12 hrs by time killing analysis relative to control; type: functional; details: dose 8 µg/ml
Staphylococcus aureus [24] = assay: Antibiofilm activity against methicillin-resistant Staphylococcus aureus ATCC 33591 assessed as reduction in biofilm biomass at 32 ug/ml incubated for 24 hrs by crystal violet staining based analysis relative to control; type: functional; parameters: scale not given: the % may be the effect or the level left; details: dose 32 µg/ml
[25] = Selectivity index, ratio of HC50 for hemolytic activity in human RBC to MIC for antibacterial activity against methicillin-resistant Staphylococcus aureus R3545; type: toxicity; details: human red blood cells (erythrocytes), read-out: Selectivity Index
Staphylococcus aureus [26] = assay: Antibacterial activity against methicillin-resistant Staphylococcus aureus R3545 incubated for 16 to 18 hrs by broth dilution method; type: functional; details: time 16-18 hrs
Escherichia coli = assay: Antibacterial activity against Escherichia coli MTCC 443 incubated for 16 to 18 hrs by broth dilution method; type: functional; details: time 16-18 hrs
Staphylococcus aureus [27] = assay: Bactericidal activity against vancomycin-resistant Staphylococcus aureus 1 assessed as log reduction in bacterial titer at 8 ug/ml observed after 12 hrs by time killing analysis; type: functional; details: dose 8 µg/ml
[28] = Selectivity index, ratio of HC50 for hemolytic activity in human RBC to MIC for antibacterial activity against vancomycin-resistant Staphylococcus aureus 4; type: toxicity; details: human red blood cells (erythrocytes), read-out: Selectivity Index
Cell membrane [29] = assay: Induction of inner membrane permeabilization in methicillin-resistant Staphylococcus aureus ATCC 33591 assessed as appearance of dead bacterial cells with compromised membrane integrity at 16 ug/ml incubated for 4 hrs by Syto-9/PI staining based confocal microscopy; type: cell membranes; details: dose 16.0 µg/ml
Staphylococcus aureus [30] = assay: Antibacterial activity against methicillin-resistant Staphylococcus aureus R3890 incubated for 16 to 18 hrs by broth dilution method; type: functional; details: time 16-18 hrs
[31] = Selectivity index, ratio of HC50 for hemolytic activity in human RBC to MIC for antibacterial activity against Staphylococcus epidermidis; type: toxicity; details: human red blood cells (erythrocytes), read-out: Selectivity Index
Cell membrane [32] = assay: Induction of membrane depolarization in methicillin-resistant Staphylococcus aureus ATCC 33591 assessed as depolarized bacterial cells by measuring green fluorescence at 8 ug/ml incubated for 4 hrs by DiOC2(3) dye based flow cytometry analysis (reference value: 27.3%); type: cell membranes; details: dose 8.0 µg/ml
[33] = Hemolytic activity in human RBC at 0.5 to 2 ug/ml incubated for 1 hr by microplate reader method relative to control; type: toxicity, cell-based, Erythrocyte; details: human red blood cells (erythrocytes), at 0.5 to 2 µg/mL, dose 0.5-2 µg/ml, read-out: Activity
[34] = Selectivity index, ratio of HC50 for hemolytic activity in human RBC to MIC for antibacterial activity against Enterococcus faecium; type: toxicity; details: human red blood cells (erythrocytes), read-out: Selectivity Index
Cell membrane [35] = assay: Induction of membrane depolarization in methicillin-resistant Staphylococcus aureus ATCC 33591 assessed as depolarized bacterial cells by measuring red to green fluorescence ratio at 8 ug/ml incubated for 4 hrs by DiOC2(3) dye based flow cytometry analysis; type: cell membranes; details: dose 8.0 µg/ml
Staphylococcus aureus [36] = assay: Induction of resistance development in methicillin-resistant Staphylococcus aureus ATCC 33591 measured after 10 days by broth dilution method; type: functional; details: time 10.0 day
Staphylococcus aureus [37] = assay: Antibiofilm activity against methicillin-resistant Staphylococcus aureus ATCC 33591 assessed as biofilm thickness at 64 ug/ml by Syto-9/PI staining based confocal laser scanning microscopy; type: functional; details: dose 64 µg/ml
Staphylococcus aureus [38] = assay: Antibacterial activity against Staphylococcus aureus MTCC 737 incubated for 16 to 18 hrs by broth dilution method; type: functional; details: time 16-18 hrs
Staphylococcus aureus [39] = assay: Antibacterial activity against methicillin-resistant Staphylococcus aureus ATCC 33591 incubated for 16 to 18 hrs by broth dilution method; type: functional; details: time 16-18 hrs
Enterococcus faecium [40] = assay: Antibacterial activity against Enterococcus faecium ATCC 19634 incubated for 16 to 18 hrs by broth dilution method; type: functional; details: time 16-18 hrs
[41] = Selectivity index, ratio of HC50 for hemolytic activity in human RBC to MIC for antibacterial activity against methicillin-resistant Staphylococcus aureus R3889; type: toxicity; details: human red blood cells (erythrocytes), read-out: Selectivity Index
[42] = Hemolytic activity in human RBC incubated for 1 hr by microplate reader method; type: toxicity, cell-based, Erythrocyte; details: human red blood cells (erythrocytes)
Staphylococcus aureus [43] = assay: Antibacterial activity against methicillin-resistant Staphylococcus aureus R3889 incubated for 16 to 18 hrs by broth dilution method; type: functional; details: time 16-18 hrs
Staphylococcus aureus [44] = assay: Antibiofilm activity against methicillin-resistant Staphylococcus aureus ATCC 33591 assessed as reduction in biofilm biomass at 64 ug/ml incubated for 24 hrs by crystal violet staining based analysis relative to control; type: functional; parameters: scale not given: the % may be the effect or the level left; details: dose 64 µg/ml
[45] = Selectivity index, ratio of HC50 for hemolytic activity in human RBC to MIC for antibacterial activity against vancomycin-resistant Enterococcus faecium 903; type: toxicity; details: human red blood cells (erythrocytes), read-out: Selectivity Index
[46] = Cytotoxicity against MDCK cells assessed as cell viability incubated for 24 hrs by alamar blue staining based assay; type: toxicity, Canis lupus familiaris; details: dog
[47] = Cytotoxicity against MDCK cells assessed as cell viability at 0.5 to 4 ug/ml incubated for 24 hrs by alamar blue assay relative to control; type: toxicity, cell-based, Canis lupus familiaris; details: dog, at 0.5 to 4 µg/mL, dose 0.5-4 µg/ml, read-out: Activity
Staphylococcus aureus [48] = assay: Antibiofilm activity against methicillin-resistant Staphylococcus aureus ATCC 33591 assessed as eradication of bacteria by measuring colocalization of green and red cells at 64 ug/ml by Syto-9/PI staining based confocal laser scanning microscopy; type: functional, organism-based; details: dose 64.0 µg/ml

## N#CC(C#N)=NNc1cccc(Cl)c1
Cell membrane [1]
  Activity: 49.1%
Cell membrane [2]
  Activity: 47.8%
Cell membrane [3]
  Ratio: 1.1

## CN[C@H](CC(C)C)C(=O)N[C@H]1C(=O)N[C@@H](CC(N)=O)C(=O)N[C@H]2C(=O)N[C@H]3C(=O)N[C@H](C(=O)N[C@H](C(=O)O)c4cc(O)cc(O)c4-c4cc3ccc4O)[C@H](O)c3ccc(c(Cl)c3)Oc3cc2cc(c3O[C@@H]2O[C@H](CO)[C@@H](O)[C@H](O)[C@H]2O[C@H]2C[C@](C)(N)[C@H](O)[C@H](C)O2)Oc2ccc(cc2Cl)[C@H]1O [VANCOMYCIN]
Enterococcus faecium [4]
  MIC: 512 mg/L (≈ 353 µM)
Enterococcus faecium [5]
  MIC: 1020 mg/L (≈ 707 µM)
Staphylococcus aureus [6]
  Activity: inactive
Staphylococcus aureus [7]
  MIC: 512 mg/L (≈ 353 µM)
Staphylococcus aureus [8]
  MIC: 512 mg/L (≈ 353 µM)

## CCCCNc1nc(NCCCC)nc(N2CC3CC(C2)CN(c2nc(NCCCC)nc(NCCCC)n2)C3)n1
Enterococcus faecium [4]
  MIC: 1 mg/L (≈ 1.76 µM)
[9]
  selectivity ratio: 800
[10]
  selectivity ratio: 800
Enterococcus faecium [5]
  MIC: 1 mg/L (≈ 1.76 µM)
Staphylococcus aureus [11]
  log(activity): ~2
[12]
  selectivity ratio: 800
Cell membrane [13]
  Activity: 47.8%
[14]
  selectivity ratio: 800
Staphylococcus aureus [15]
  Activity: 100%
[16]
  selectivity ratio: 400
Cell membrane [17]
  Activity: Dose-Dependent Effect
Staphylococcus aureus [18]
  log(activity): >5
Staphylococcus aureus [19]
  log(activity): 1.7
Staphylococcus aureus [20]
  Activity: Dose-Dependent Effect
[21]
  MIC: 4 mg/L (≈ 7.03 µM)
Cell membrane [22]
  Activity: Dose-Dependent Effect
Staphylococcus aureus [23]
  Activity: 100%
Staphylococcus aureus [24]
  Activity: 50%
[25]
  selectivity ratio: 800
Staphylococcus aureus [26]
  MIC: 0.5 mg/L (≈ 0.879 µM)
Escherichia coli
  MIC: 64 mg/L (≈ 113 µM)
Staphylococcus aureus [7]
  MIC: 0.5 mg/L (≈ 0.879 µM)
Staphylococcus aureus [27]
  log(activity): 3.5
[28]
  selectivity ratio: 800
Cell membrane [29]
  Activity: Active
Staphylococcus aureus [30]
  MIC: 0.5 mg/L (≈ 0.879 µM)
[31]
  selectivity ratio: 400
Cell membrane [32]
  Activity: 43.2%
[33]
  hemolysis at 1 h: 0%
[34]
  selectivity ratio: 400
Cell membrane [35]
  Ratio: 1.1
Staphylococcus aureus [36]
  Activity: inactive
Staphylococcus aureus [37]
  Activity: 3 um
Staphylococcus aureus [38]
  MIC: 0.5 mg/L (≈ 0.879 µM)
Staphylococcus aureus [39]
  MIC: 0.5 mg/L (≈ 0.879 µM)
Enterococcus faecium [40]
  MIC: 0.25 mg/L (≈ 0.44 µM)
[41]
  selectivity ratio: 800
[42]
  HC50 at 1 h: 810 µg/mL
Staphylococcus aureus [43]
  MIC: 0.5 mg/L (≈ 0.879 µM)
Staphylococcus aureus [8]
  MIC: 0.5 mg/L (≈ 0.879 µM)
Staphylococcus aureus [44]
  Activity: 40%
[45]
  selectivity ratio: 800
[46]
  EC50 at 24 h: 21 mg/L (≈ 36.9 µM)
[47]
  viability at 24 h: > 95%
Staphylococcus aureus [48]
  Activity: Active
